Experimental data published in patent US5800838A, “Composition that inhibits or destroys at least one unicellular living organism containing fluorine F- and Lithium li+” (priority 1987, dated 1998).
Where two headings read alike, the source gives them in different places.

How the values were obtained:
spermatozoa = assay: SANDERS-CRAMER total spermicidal test according to IPPF standards; assay type: cell-based; settings: with 1 ml solution containing 0.0001% lithium fluoride; in the initial 1 millilitre
Chlamydia trachomatis = assay: MIC on Chlamydia trachomatis strains; assay type: cell-based; settings: listed test strain, read-out: MIC of benzalkonium chloride
Experimental: The test was performed on 12 strains of Chlamydia trachomatis originating from hospital sources, in particular from cases of urethritis. All the trials were performed in duplicate, and the results compared with those for a listed control strain.
The MIC corresponds to the concentration of benzalkonium chloride at and above which the average number of colonies in Petri dishes containing the active substance is less than one tenth of the average number of colonies in Petri dishes without active substance.

Gardnerella vaginalis = assay: Contact methodology AFNOR standard I 72-151, strains surviving (second trial); assay type: cell-based; settings: 15-min contact, NaF or LiF 1 mg/l where added
Experimental: The second trial carried out was performed according to the contact methodology described in AFNOR standard I 72-151, by counting the strains surviving after a 15-min active substance/microbacterial solution contact followed by a filtration on a membrane (porosity 0.22 μm).
In this trial, 26 wild-type strains of Gardnerella vaginalis were tested, originating from hospital sources. The starting solution contained 0.1% of benzalkonium chloride, and was then diluted to 10^-1, 10^-2, 10^-3 and 10^-4. The results are summarized in the table below, which gives the total number of strains surviving (out of the 26 tested) in terms of the dilution.

Candida albicans [1] = assay: MIC on hospital strains of Candida albicans; assay type: cell-based; settings: read-out: MIC of the primary active principle
Experimental: (§1) The methodology employed is that described by Professor F. CATALAN, P. SEDNAOUI, A. MILOVANOVIC et al., Institut A. FOURNIER, PARIS.
With the same methodology, trials were performed on hospital strains of Candida albicans: […]

Aspergillus niger [2] = assay: MIC on hospital strains of Aspergillus niger; assay type: cell-based; settings: read-out: MIC of the primary active principle
Source text: as §1
With the same methodology, the following results were observed on hospital strains of Aspergillus niger: […]

Haemophilus influenzae = assay: MIC on hospital strains of pyogenic microorganisms; assay type: cell-based; settings: read-out: MIC of the primary active principle
Source text: as §1
(§2) With the same methodology, the following results were observed on hospital strains of pyogenic microorganisms, namely […] streptococcus, Proteus vulgaris, Haemophilus influenzae: […]

Proteus vulgaris = assay: MIC on hospital strains of pyogenic microorganisms; assay type: cell-based; settings: read-out: MIC of the primary active principle
Source text: as §1, §2

[3] = system: β-Haemolytic streptococcus; assay: MIC on hospital strains of pyogenic microorganisms; assay type: cell-based; settings: read-out: MIC of the primary active principle
Source text: as §1, §2

[4] = system: Escherichia coli CNCM 54 127; assay: MIC, French standard NF T 72-150, AFNOR strain; assay type: cell-based; settings: in the presence of LiF at 1 mg/l
Experimental: (§3) French standard NF T 72-150, March 1981, was followed by the trials carried out. The trials were performed on the strains defined by the AFNOR standard.
(§4) The results obtained on the strains defined by the AFNOR standard for benzalkonium chloride alone and for benzalkonium chloride with the addition of 1 mg/l of sodium fluoride were already given in unpublished European Patent Application 86/402,716.4, and have been recorded again.

[5] = system: Mycobacterium smegmatis CNCM 7 326; assay: MIC, French standard NF T 72-150, AFNOR strain; assay type: cell-based; settings: in the presence of LiF at 1 mg/l
Experimental: as §3, §4

[6] = system: Pseudomonas aeruginosa CNCM A 22; assay: MIC, French standard NF T 72-150, AFNOR strain; assay type: cell-based; settings: in the presence of LiF at 1 mg/l
Experimental: as §3, §4

[7] = system: Staphylococcus aureus Oxford strain CNCM 53 154; assay: MIC, French standard NF T 72-150, AFNOR strain; assay type: cell-based; settings: in the presence of LiF at 1 mg/l
Experimental: as §3, §4

[8] = system: Streptococcus faecalis CNCM 5 855; assay: MIC, French standard NF T 72-150, AFNOR strain; assay type: cell-based; settings: in the presence of LiF at 1 mg/l
Experimental: as §3, §4

Aspergillus niger [9] = assay: MIC on hospital strains (Example 13); assay type: cell-based; settings: read-out: MIC of benzalkonium chloride
Experimental: (§5) The same trials as in example 12 were carried out on hospital strains of various microorganisms.

Bacillus subtilis = assay: MIC on hospital strains (Example 13); assay type: cell-based; settings: read-out: MIC of benzalkonium chloride
Experimental: as §5

Candida albicans [10] = assay: MIC on hospital strains (Example 13); assay type: cell-based; settings: read-out: MIC of benzalkonium chloride
Experimental: as §5

Ducrey's bacillus = assay: MIC on hospital strains (Example 13); assay type: cell-based; settings: read-out: MIC of benzalkonium chloride
Experimental: as §5

Escherichia coli = assay: MIC on hospital strains (Example 13); assay type: cell-based; settings: read-out: MIC of benzalkonium chloride
Experimental: as §5

Gardenerella vaginalis = assay: MIC on hospital strains (Example 13); assay type: cell-based; settings: read-out: MIC of benzalkonium chloride
Experimental: as §5

Neisseria gonorrhoea = assay: MIC on hospital strains (Example 13); assay type: cell-based; settings: read-out: MIC of benzalkonium chloride
Experimental: as §5

Sarcina lutea = assay: MIC on hospital strains (Example 13); assay type: cell-based; settings: Micrococcus luteus, read-out: MIC of benzalkonium chloride
Experimental: as §5

Staphylococcus aureus = assay: MIC on hospital strains (Example 13); assay type: cell-based; settings: read-out: MIC of benzalkonium chloride
Experimental: as §5

Streptococcus faecalis = assay: MIC on hospital strains (Example 13); assay type: cell-based; settings: Enterococcus faecalis, read-out: MIC of benzalkonium chloride
Experimental: as §5

Trichomonas vaginalis = assay: MIC on hospital strains (Example 13); assay type: cell-based; settings: read-out: MIC of benzalkonium chloride
Experimental: as §5

MAC COY cells = settings: mouse
[11] = system: Pseudomonas aeruginosa CNCM A 22; settings: cited from earlier work
[12] = system: Streptococcus faecalis CNCM 5 855; settings: cited from earlier work
[13] = in the presence of LiF at 0.96 mg/l
[14] = in the presence of LiF at 1 mg/l and of KATHON CG preservative at 0.4 mg/l
[15] = in the presence of LiF at 1 ppm
[16] = in the presence of NaF at 1 mg/l

CCCCCCCCCCCCCC[N+](C)(C)Cc1ccccc1.[Cl-] [benzalkonium chloride, myristyldimethylbenzylammonium chloride]
MIC of benzalkonium chloride (spermatozoa): 0.0009%
MIC (Chlamydia trachomatis; 1 mg/ml added (lithium fluoride)): 13 µg/mL
MIC (Chlamydia trachomatis; alone): 18 µg/mL
total number of strains surviving (out of the 26 tested) (Gardnerella vaginalis; 0.1% solution diluted 10^-1): 0
total number of strains surviving (out of the 26 tested) (Gardnerella vaginalis; 0.1% solution diluted 10^-2): 18
total number of strains surviving (out of the 26 tested) (Gardnerella vaginalis; 0.1% solution diluted 10^-3): 22
total number of strains surviving (out of the 26 tested) (Gardnerella vaginalis; 0.1% solution diluted 10^-4): 26
MIC (Candida albicans [1]; alone): 50 µg/mL
MIC (Candida albicans [1]; in the presence of LiF at 0.96 mg/l and of KATHON CG preservative at 0.234/mgl): 2 µg/mL
MIC (Candida albicans [1]; [13]): 135 µg/mL
MIC (Aspergillus niger [2]; alone): 50 µg/mL
MIC (Aspergillus niger [2]; in the presence of LiF at 0.96 mg/l and of KATHON CG preservative at 0.234 mg/l): 100 µg/mL
MIC (Aspergillus niger [2]; [13]): 135 µg/mL
MIC (Haemophilus influenzae; alone): 200 µg/mL
MIC (Haemophilus influenzae; [14]): 150 µg/mL
MIC (Proteus vulgaris; alone): 25 µg/mL
MIC (Proteus vulgaris; [14]): 18.5 µg/mL
MIC ([3]; alone): 50 µg/mL
MIC [3, 14]: 25 µg/mL
MIC of benzalkonium chloride [4]: 2 µg/mL
MIC of benzalkonium chloride [5]: 22 µg/mL
MIC of benzalkonium chloride [6]: 15 µg/mL
MIC of benzalkonium chloride [7]: 1.1 µg/mL
MIC of benzalkonium chloride [8]: 2.8 µg/mL
MIC (Aspergillus niger [9]; alone): 85 µg/mL
MIC (Aspergillus niger [9]; [15]): 80 µg/mL
MIC (Bacillus subtilis; alone): 8 µg/mL
MIC (Bacillus subtilis; [15]): 5.4 µg/mL
MIC (Candida albicans [10]; alone): 50 µg/mL
MIC (Candida albicans [10]; [15]): 35 µg/mL
MIC (Ducrey's bacillus; alone): 75 µg/mL
MIC (Ducrey's bacillus; [15]): 62 µg/mL
MIC (Escherichia coli; alone): 8 µg/mL
MIC (Escherichia coli; [15]): 6.5 µg/mL
MIC (Gardenerella vaginalis; alone): 50 µg/mL
MIC (Gardenerella vaginalis; [15]): 41 µg/mL
MIC (Neisseria gonorrhoea; alone): 1.15 µg/mL
MIC (Neisseria gonorrhoea; [15]): 0.6 µg/mL
MIC (Sarcina lutea; alone): 11 µg/mL
MIC (Sarcina lutea; [15]): 7.5 µg/mL
MIC (Staphylococcus aureus; alone): 1.56 µg/mL
MIC (Staphylococcus aureus; [15]): 1 µg/mL
MIC (Streptococcus faecalis; alone): 15 µg/mL
MIC (Streptococcus faecalis; [15]): 9 µg/mL
MIC (Trichomonas vaginalis; alone): 1.3 µg/mL
MIC (Trichomonas vaginalis; [15]): 0.9 µg/mL
threshold of cytotoxic activity (MAC COY cells): 0.01%
MIC of benzalkonium chloride ([11]; alone): 31.25 µg/mL
MIC of benzalkonium chloride [11, 16]: 18 µg/mL
MIC of benzalkonium chloride ([12]; alone): 4 µg/mL
MIC of benzalkonium chloride [12, 16]: 3.6 µg/mL
